In US5075287A, “Muramyl peptide derivatives and immunoregulating compositions containing them” (priority 1989, dated 1991):
Like-named read-outs stand apart in the source and are kept apart here.

Tests used:
[1] = test system: hepatitis B virus surface antigen (HBs); test: Hepatitis-vaccine enhancing activity (adjuvant activity): anti-HBs IgG in mouse serum by ELISA; assay type: in vivo, female CDF1 mice
Description: A compound of the present invention was dissolved in lipidmicrosphere (1 mg/ml). On the other hand, a solution of hepatitis B virus surface antigen (HBs) in physiological saline was prepared (50 μg/ml). The above solutions in equal amounts were mixed to prepare a test solution. A control solution was prepared by the exclusion of the compound of the present invention from said test solution. A mixture of a suspension of aluminium hydroxide gel in physiological saline (1 mg/ml) and said hepatitis vaccine preparation in equal amounts was prepared as another control solution. The test solution (0.2 ml) was intraperitoneally administered to each mouse in one group consisting of seven female CDF1 mice.
Blood samples were collected from the fundus ocluli vein of each mouse every week after the administration and then centrifuged to obtain serums. Three weeks after the administration, 0.2 ml of the test liquid was intraperitoneally administered again to each mouse for secondary stimulation. Then blood collecting was conducted every week to obtain serums after the application of the secondary stimulation, in the same manner as that described above.
The amount of the IgG antibodies against the hepatitis B virus surface antigens (HBs) in the serums thus obtained was determined with an ELISA method.

[2] = test system: L-1210 mouse leukemia cells; test: Activation of macrophages (growth inhibition of tumor cells by intraperitoneal macrophages of treated mice, MTT assay); assay type: cell-based; conditions: macrophages taken 3 days after i.p. 0.2 ml of 500 μg/ml, macrophage:L-1210 20:1, 72 hours
Description: A compound of the present invention was dissolved in lipidmicrosphere to obtain a solution in a concentration of 500μg/ml, and 0.2 ml of such solution was intraperitoneally administered to each mouse in one group consisting of seven female CDF1 mice. Intraperitoneal macrophages obtained three days after the administration and L-1210 mouse leukemia cells were mixed in the ratio of cell numbers of 20:1, respectively. Two hundred μl of the mixture was placed in each well of one sheet of 96 well microtiter plate. After 72 hours, the increase of the cell number in each well was determined by a MTT assay method. The ratio of the cell number for the mixture of the L-1210 cells and the macrophage relative to the cell number for the L-1210 cells only(growth inhibitory ratio) was determined, and the results are shown in Table 3.

[3] = test system: influenza HA vaccine (B/Nagasaki/1/87 strain); assay type: in vivo, female CDF1 mice
[4] = Experiment 1, 1 W after i.p. administration, 5000-fold dilution, compound in lipidmicrosphere + HBs
[5] = Experiment 1, 2 W, 5000-fold dilution
[6] = Experiment 1, 3 W, 5000-fold dilution
[7] = Experiment 1, 4 W (after secondary stimulation at 3 weeks), 5000-fold dilution
[8] = Experiment 1, 5 W (after secondary stimulation at 3 weeks), 5000-fold dilution
[9] = Experiment 1, 1 W after i.p. administration, 5000-fold dilution, compound in lipidmicrosphere + HA vaccine

Structure (SMILES)	Anti-HBs IgG antibody level in serum (ELISA absorbance at 415 nm) [1, 4]	Anti-HBs IgG antibody level in serum (ELISA absorbance at 415 nm) [1, 5]	Anti-HBs IgG antibody level in serum (ELISA absorbance at 415 nm) [1, 6]	Anti-HBs IgG antibody level in serum (ELISA absorbance at 415 nm) [1, 7]	Anti-HBs IgG antibody level in serum (ELISA absorbance at 415 nm) [1, 8]	Growth inhibitory ratio of L-1210 mouse leukemia cells [2]	Anti HA serum antigen value (average value ± S.D.) [3, 9]	Anti HA serum antigen value (average value ± S.D.) [3, 5]	Anti HA serum antigen value (average value ± S.D.) [3, 6]	Anti HA serum antigen value (average value ± S.D.) [3, 7]	Anti HA serum antigen value (average value ± S.D.) [3, 8]	further results
CCCCCCCCCCCCCCC(CCCCCCCCCCCCCC)C(=O)O[C@H]1O[C@H](CO)[C@@H](O)[C@H](O[C@H](C)C(=O)N[C@@H](C)C(=O)N[C@H](CCC(=O)OC)C(N)=O)[C@H]1NC(C)=O [Example 1]	0.001 ± 0.001 O.D 415 nm	0.018 ± 0.000 O.D 415 nm	0.074 ± 0.002 O.D 415 nm	0.815 ± 0.011 O.D 415 nm	0.843 ± 0.005 O.D 415 nm	40.0%	0.007 ± 0.003 O.D 415 nm	0.174 ± 0.003 O.D 415 nm	0.232 ± 0.003 O.D 415 nm	1.243 ± 0.036 O.D 415 nm	1.201 ± 0.002 O.D 415 nm	
CCCCCCCCCCCCCCC(CCCCCCCCCCCCCC)C(=O)S[C@@H]1O[C@H](CO)[C@@H](O)[C@H](O[C@H](C)C(=O)N[C@@H](C)C(=O)N[C@H](CCC(=O)OC)C(N)=O)[C@H]1NC(C)=O [Example 2]	0 O.D 415 nm	0.023 ± 0.000 O.D 415 nm	0.076 ± 0.001 O.D 415 nm	0.975 ± 0.008 O.D 415 nm	0.930 ± 0.004 O.D 415 nm	41.3%	0.003 ± 0.001 O.D 415 nm	0.172 ± 0.004 O.D 415 nm	0.420 ± 0.005 O.D 415 nm	0.447 ± 0.029 O.D 415 nm	1.418 ± 0.035 O.D 415 nm	
CCCCCCCCCCCCCC(=O)O[C@H](CCCCCCCCCCC)CC(=O)O[C@H]1O[C@H](CO)[C@@H](O)[C@H](O[C@H](C)C(=O)N[C@@H](C)C(=O)N[C@H](CCC(=O)OC)C(N)=O)[C@H]1NC(C)=O [Example 3, N-[2-0-{2-Acetamido-2,3-dideoxy-1-0-((3R)-3-tetradecanoyloxytetradecanoyl)-α-D-glucopyranos-3-yl}-D-lactoyl]-L-alanyl-D-isoglutamine methylester]	0 O.D 415 nm	0.027 ± 0.001 O.D 415 nm	0.064 ± 0.003 O.D 415 nm	0.631 ± 0.006 O.D 415 nm	0.692 ± 0.009 O.D 415 nm	42.6%	0.009 ± 0.000 O.D 415 nm	0.182 ± 0.003 O.D 415 nm	0.292 ± 0.004 O.D 415 nm	0.122 ± 0.020 O.D 415 nm	1.140 ± 0.013 O.D 415 nm	
CCCCCCCCCCCCCC(=O)O[C@H](CCCCCCCCCCC)CC(=O)S[C@@H]1O[C@H](CO)[C@@H](O)[C@H](O[C@H](C)C(=O)N[C@@H](C)C(=O)N[C@H](CCC(=O)OC)C(N)=O)[C@H]1NC(C)=O [Example 4, N-[2-0-{2-Acetamido-2,3-dideoxy-1-S-[[3R)-3-tetradecanoyloxytetradecanoyl)-1-thio-β-D-glucopyranos-3-yl}-D-lactoyl]-L-alanyl-D-isoglutamine methylester]	0 O.D 415 nm	0.073 ± 0.001 O.D 415 nm	0.111 ± 0.007 O.D 415 nm	0.848 ± 0.009 O.D 415 nm	0.935 ± 0.022 O.D 415 nm	45.2%	0.004 ± 0.001 O.D 415 nm	0.215 ± 0.001 O.D 415 nm	0.381 ± 0.004 O.D 415 nm	1.204 ± 0.012 O.D 415 nm	1.150 ± 0.016 O.D 415 nm	
CCCCCCCCCCCCCCC(CCCCCCCCCCCCCC)C(=O)O[C@H]1O[C@H](COC(=O)CCCCCCCCC)[C@@H](O)[C@H](O[C@H](C)C(=O)N[C@@H](C)C(=O)N[C@H](CCC(=O)OC)C(N)=O)[C@H]1NC(C)=O [Example 5]	0.001 ± 0.001 O.D 415 nm	0.021 ± 0.001 O.D 415 nm	0.048 ± 0.001 O.D 415 nm	0.643 ± 0.013 O.D 415 nm	0.490 ± 0.009 O.D 415 nm	57.8%	0 O.D 415 nm	0.091 ± 0.002 O.D 415 nm	0.377 ± 0.001 O.D 415 nm	1.037 ± 0.027 O.D 415 nm	1.068 ± 0.004 O.D 415 nm	
CCCCCCCCCCCCCCCCCCCCCCCC(=O)O[C@H](CCCCCCCCCCC)CC(=O)S[C@@H]1O[C@H](COC(=O)CCCCCCCCCCCCCCCCC)[C@@H](O)[C@H](O[C@H](C)C(=O)N[C@@H](C)C(=O)N[C@H](CCC(=O)OC)C(N)=O)[C@H]1NC(C)=O [Example 28, N-[2-0-{2-Acetamido-2,3-dideoxy-6-0-octadecanoyl-1-S-((3R}-3-tetracosanoyloxytetradecanoyl)-1-thio-β-D-glucopyranos-3-Yl}-D-lactoyl]-L-alanyl-D-isoglutamine methylester]												Anti-HBs IgG antibody level in serum (ELISA absorbance at 415 nm) ([1]; Experiment 2, 1 W, 2000-fold dilution): 0.005 ± 0.003 O.D 415 nm; Anti-HBs IgG antibody level in serum (ELISA absorbance at 415 nm) ([1]; Experiment 2, 2 W, 2000-fold dilution): 0.062 ± 0.004 O.D 415 nm; Anti-HBs IgG antibody level in serum (ELISA absorbance at 415 nm) ([1]; Experiment 2, 3 W, 2000-fold dilution): 0.086 ± 0.004 O.D 415 nm; Anti-HBs IgG antibody level in serum (ELISA absorbance at 415 nm) ([1]; Experiment 2, 4 W (after secondary stimulation at 3 weeks), 2000-fold dilution): 0.611 ± 0.018 O.D 415 nm; Anti-HBs IgG antibody level in serum (ELISA absorbance at 415 nm) ([1]; Experiment 2, 5 W (after secondary stimulation at 3 weeks), 2000-fold dilution): 0.543 ± 0.029 O.D 415 nm; Anti HA serum antigen value (average value ± S.D.) ([3]; Experiment 2, 1 W, 8000-fold dilution): 0.008 ± 0.004 O.D 415 nm; Anti HA serum antigen value (average value ± S.D.) ([3]; Experiment 2, 2 W, 8000-fold dilution): 0.041 ± 0.004 O.D 415 nm; Anti HA serum antigen value (average value ± S.D.) ([3]; Experiment 2, 3 W, 8000-fold dilution): 0.061 ± 0.001 O.D 415 nm; Anti HA serum antigen value (average value ± S.D.) ([3]; Experiment 2, 4 W (after secondary stimulation at 3 weeks), 8000-fold dilution): 0.787 ± 0.018 O.D 415 nm; Anti HA serum antigen value (average value ± S.D.) ([3]; Experiment 2, 5 W (after secondary stimulation at 3 weeks), 8000-fold dilution): 0.779 ± 0.024 O.D 415 nm
